Assay results from patent US20060019890A1, “Method for treating cardiac remodeling following myocardial injury” (priority 2004, published 2006).

Legend:
[1] = system: human cardiac fibroblasts; experiment: Real-time RT-PCR gene expression in cardiac fibroblasts; type: cell-based; conditions: U0126 0.1-10 μmol/L, PD98059 10 μmol/L, 48 h
Procedure: Real-time RT-PCR^18 was performed in a two-step manner. cDNA synthesis and real-time detection were carried out in a PTC-100™ Thermal Cycler (MJ Research Inc, Waltham, Mass.) and an ABI Prism™ 7700 Sequence Detection System (Applied Biosystems, Foster City, Calif.), respectively. Random hexamers (Qiagen, Valencia, Calif.) were used to generate cDNA from 200 ng RNA as described in Applied Biosystems User Bulletin #2. TaqMan™ PCR Core Reagent Kit or TaqMan™ Universal PCR Master Mix (Applied Biosystems) were used in subsequent PCR reactions according to the manufacturer's protocols. Relative quantitation of gene expression was performed using the relative standard curve method. All real-time RT-PCR reactions were performed in triplicate.
Sequence specific primers and probes were designed using Primer Express Version 2 software (Applied Biosystems). Sequences of primers and probes can be found in Table 1 below. Expression levels were normalized to 18S rRNA. The selection of 18S rRNA as an endogenous control was based on an evaluation of the ΔCT levels (Applied Biosystems document # 4308134C) of 6 “housekeeping” genes: Cyclophilin A, 18S, GAPDH, β-actin, β-Glucuronidase, and Hypoxanthine Guanine Phosphoribosyl Transferase.

[2] = system: human cardiac fibroblasts; experiment: Western blot analysis of Collagen 1 and Fibronectin protein; type: cell-based; conditions: U0126 0.1-10 μmol/L, PD98059 10 μmol/L, 48 h
Procedure: (§1) Lysis was induced with 0.2 ml of buffer containing 20 mM Tris-HCL, pH 7.9, 137 mM NaCl, 1% Triton X-100, 5 mM EDTA, 10 mM NaF, 1 mM β-glycerophosphate, and protease inhibitor cocktail. The protein concentration of each lysate was measured using coomassie protein reagent from PIERCE. Twenty μg of protein from each sample was loaded and electrophoresed on 4-12% gradient polyacrylamide gels and electrophoretically transferred to nitrocellulose membranes (Invitrogen, San Diego, Calif.). The membranes were incubated with rabbit anti-human Collagen 1 antibody (Cortex Biochem, San Leandro, Calif.), HRP-conjugated anti-human Fibronectin antibody, or goat anti-Actin antibody (Santa Cruz Biotehnology, Santa Cruz, Calif.) in TBST buffer containing 20 mM Tris-HCl, pH 7.5, 150 mM NaCl, 0.1% Tween-20, and 5% nonfat dried milk at 4° C. for ˜16 h. For ERK phosphorylation, cells were treated with 0.5 μmol/L BNP in the presence of 1 μmol/L KT5823 or 10 μmol/L U0126 for 15 min; the membranes were incubated with rabbit anti-human phospho-ERK ½ antibody or rabbit anti-human ERK ½ antibody (Cell Signaling, Beverly, Mass.). For secondary antibody detection, membranes were incubated with HRP-conjugated anti-rabbit antibody or anti-goat antibody at room temperature for 1 h and washed 3 times with TBST buffer. The blots were soaked in ECL Plus reagent for 5 min and exposed to KODAK x-ray film. Signals were identified and quantified using a Typhoon Scanner and Densitometer from Amersham Biosciences (Piscataway, N.J.). Data was analyzed by ANOVA using the Newman-Keuls test to assess significance. Results cGMP Production in Cardiac Fibroblasts

ERK = experiment: Western analysis of ERK phosphorylation; type: cell-based, human; conditions: KT5823 1 μmol/L or U0126 10 μmol/L, 15 min
Procedure: as §1

Row | SMILES | effect on BNP inhibition of TGFβ-induced Collagen-1 expression, real-time RT-PCR [1] | effect on BNP inhibition of TGFβ-induced Collagen-1 expression, Western blot [2] | effect on BNP induced ERK phosphorylation (ERK)
1 | COc1cccc(-c2cc(=O)c3ccccc3o2)c1N [PD98059] | reversed | reversed | –
2 | N#CC(=C(/N)Sc1ccccc1N)/C(C#N)=C(\N)Sc1ccccc1N [U0126] | reversed | reversed | completely blocked
3 | COC(=O)[C@@]1(OC)C[C@H]2O[C@]1(C)n1c3ccccc3c3c4c(c5c6ccccc6n2c5c31)C(=O)N(C)C4 [KT5823] | – | – | completely blocked
